In data set [1] the test system is Cerebral cortex. Nature of the data set: Drug uptake in Sprague-Dawley rat cerebral cortex at 0.01 nM after 45 mins by autoradiography. Format: ADME, tissue-based. The note with it: 10 pM.
In data set [2] the test system is MDR1. Kind of data set: Apparent permeability from basolateral to apical side in MDCK2 cells expressing MDR1 by gamma counting. The format is ADME, cell-based, Canis lupus familiaris, MDCK-II. The settings on record: dog, MDCK-MDR1.
Data set [3] relates to Striatum. Kind of data set: Drug uptake in Sprague-Dawley rat striatum at 0.01 nM in presence of 100 uM histamine after 45 mins by autoradiography. The format is ADME, tissue-based. The note with it: 10 pM.
For data set [4], the target named is T1, Histamine H3 receptor (Rattus norvegicus, UniProt Q9QYN8). Kind of data set: Binding affinity to rat brain histamine H3 receptor after 1 hr by gamma counting.
T1 sequence (Q9QYN8 whole entry): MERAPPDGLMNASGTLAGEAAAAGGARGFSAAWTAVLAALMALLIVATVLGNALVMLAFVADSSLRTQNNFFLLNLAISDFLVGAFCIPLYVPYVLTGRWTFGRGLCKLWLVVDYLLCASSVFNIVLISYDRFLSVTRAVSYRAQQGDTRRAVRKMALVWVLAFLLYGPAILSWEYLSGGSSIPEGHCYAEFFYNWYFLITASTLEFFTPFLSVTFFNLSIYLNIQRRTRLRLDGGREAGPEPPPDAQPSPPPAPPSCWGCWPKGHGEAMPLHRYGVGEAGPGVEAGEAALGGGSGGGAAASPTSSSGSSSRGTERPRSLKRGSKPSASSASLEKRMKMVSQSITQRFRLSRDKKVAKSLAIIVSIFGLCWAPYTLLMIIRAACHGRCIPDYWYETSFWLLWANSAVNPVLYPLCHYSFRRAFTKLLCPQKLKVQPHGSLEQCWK
Data set [5] is described as follows: Drug level in Sprague-Dawley urine rat assessed as parent compound level at 250 MBq, iv measured 30 mins post dose. The format is ADME, organism-based. The settings on record: in vivo, 0.5 h.
Data set [6] is described as follows: Permeability from basolateral to apical side in MDCK2 cells by gamma counting. Format: ADME, cell-based, Canis lupus familiaris. The note with it: dog, mdck-ii.
Data set [7] in a line: Drug uptake in Sprague-Dawley rat thyroid gland at 29.1 MBq after 70 to 100 mins post injection by PET imaging. The format is ADME, tissue-based. The note with it: in vivo.
Data set [8] can be described thus: Drug uptake in Sprague-Dawley rat intraorbital lacrimal gland at 29.1 MBq after 70 to 100 mins post injection by PET imaging. Format: ADME, tissue-based. The settings on record: in vivo.
For data set [9], the system named is Rattus norvegicus. Nature of the data set: Drug uptake in Sprague-Dawley rat at 29.1 MBq after 70 to 100 mins post injection coadministered with 1 mg/kg ST900 by PET imaging. The format is ADME, organism-based. On the set-up: dose 1 mg/kg. The note with it: in vivo.
Data set [10] in a line: Drug uptake in Sprague-Dawley rat harderin gland at 29.1 MBq after 70 to 100 mins post injection by PET imaging. Format: ADME, tissue-based. The note with it: in vivo.
A further data set has as its system Intestine. Kind of data set: Drug uptake in Sprague-Dawley rat intestine at 29.1 MBq after 70 to 100 mins post injection by PET imaging. The settings on record: in vivo. The format is ADME, tissue-based.
Data set [11] is described as follows: Permeability from apical to basolateral side in MDCK2 cells by gamma counting. The format is ADME, cell-based, Canis lupus familiaris. The note with it: dog, mdck-ii.
Data set [12] concerns Cerebral cortex. Nature of the data set: Drug uptake in Sprague-Dawley rat Cerebral cortex at 29.1 MBq after 70 to 100 mins post injection by PET imaging. The format is ADME, tissue-based. The note with it: in vivo.
In a further data set the test system is Kidney. Kind of data set: Drug uptake in Sprague-Dawley rat kidney pelvis at 29.1 MBq after 70 to 100 mins post injection by PET imaging. Format: ADME, tissue-based. The note with it: in vivo.
Data set [13] can be described thus: Drug uptake in Sprague-Dawley rat Spinal colum at 29.1 MBq after 70 to 100 mins post injection by PET imaging. Format: ADME. The settings on record: in vivo.
Data set [14] relates to Rattus norvegicus. Nature of the data set: Drug uptake in Sprague-Dawley rat at 29.1 MBq after 70 to 100 mins post injection coadministered with 2 mg/kg ciproxifan by PET imaging. Format: ADME, organism-based. The arrangement: dose 2 mg/kg. The note with it: in vivo.
Another data set concerns Cerebellum. Kind of data set: Drug uptake in Sprague-Dawley rat cerebellum at 0.01 nM after 45 mins by autoradiography. Format: ADME, tissue-based. The settings on record: 10 pM.
The next data set relates to Adrenal gland. Kind of data set: Drug uptake in Sprague-Dawley rat adrenal gland at 29.1 MBq after 70 to 100 mins post injection by PET imaging. Format: ADME, tissue-based. The settings on record: in vivo.
Data set [15] in a line: Metabolic stability human plasma assessed as parent compound level at 60 MBq after 90 mins by UPLC analysis. Format: ADME, cell-free. The note with it: read-out: Stability.
The subject of data set [16] is Thalamus. Nature of the data set: Drug uptake in Sprague-Dawley rat thalamus at 0.01 nM after 45 mins by autoradiography. The format is ADME, tissue-based. The note with it: 10 pM.
The nature of data set [17]: Drug uptake in Sprague-Dawley rat skeleton joint at 29.1 MBq after 70 to 100 mins post injection by PET imaging. Format: ADME, tissue-based. The note with it: in vivo.
For data set [18], the system named is Liver microsomes. Nature of the data set: Metabolic stability rat liver microsome after 120 mins by UPLC analysis. Format: ADME. The settings on record: 2 h.
In data set [19] the test system is Thalamus. Nature of the data set: Drug uptake in Sprague-Dawley rat thalamus at 0.01 nM in presence of 100 uM histamine after 45 mins by autoradiography. The settings on record: 10 pM. Format: ADME, tissue-based.
Data set [20] has as its system Hippocampus. Kind of data set: Drug uptake in Sprague-Dawley rat hippocampus at 0.01 nM in presence of 100 uM histamine after 45 mins by autoradiography. Format: ADME, tissue-based. The settings on record: 10 pM.
In data set [21] the test system is Striatum. Kind of data set: Drug uptake in Sprague-Dawley rat striatum at 0.01 nM after 45 mins by autoradiography. The note with it: 10 pM. Format: ADME, tissue-based.
The next data set concerns Liver. Kind of data set: Drug uptake in Sprague-Dawley rat liver at 29.1 MBq after 70 to 100 mins post injection by PET imaging. Format: ADME, tissue-based. The settings on record: in vivo.
For data set [22], the system named is Cerebral cortex. Kind of data set: Drug uptake in Sprague-Dawley rat cerebral cortex at 0.01 nM in presence of 100 uM histamine after 45 mins by autoradiography. Format: ADME, tissue-based. The settings on record: 10 pM.
In data set [23] the test system is Liver microsomes. Nature of the data set: Metabolic stability human liver microsome after 120 mins by UPLC analysis. The format is ADME. The settings on record: 2 h. In general terms: Liver microsomes are a subcellular fraction often used to study metabolism.
For data set [24], the system named is Rattus norvegicus. Nature of the data set: Stability in Sprague-Dawley rat assessed as parent compound level at 250 MBq, iv measured 5 to 30 mins post dose. Format: ADME, organism-based. The note with it: in vivo.
Data set [25] can be described thus: Metabolic stability human plasma assessed as compound degradation at 60 MBq after 120 mins by UPLC analysis. Format: ADME, cell-free. The settings on record: read-out: Drug degradation.
Data set [26] can be described thus: Drug uptake in Sprague-Dawley rat urinary bladder at 29.1 MBq after 70 to 100 mins post injection by PET imaging. The settings on record: in vivo. Format: ADME, tissue-based.
The nature of data set [27]: Drug uptake in Sprague-Dawley rat salivary gland at 29.1 MBq after 70 to 100 mins post injection by PET imaging. Format: ADME, tissue-based. The settings on record: in vivo.
Data set [28] concerns the target T1, Histamine H3 receptor. Kind of data set: Binding affinity to rat histamine H3 receptor low affinity site after 1 hr by Schard plot analysis.
For data set [29], the system named is MDR1. Kind of data set: Apparent permeability from apical to basolateral side in MDCK2 cells expressing MDR1 by gamma counting. Format: ADME, cell-based, Canis lupus familiaris, MDCK-II. The settings on record: dog, MDCK-MDR1.
Data set [30] deals with MDR1. Nature of the data set: Efflux ratio of permeability from basolateral to apical side over apical to basolateral side in MDCK2 cells expressing MDR1 by gamma counting. The format is ADME, cell-based, Canis lupus familiaris, MDCK-II. The settings on record: dog, MDCK-MDR1.
In data set [31] the test system is Striatum. Kind of data set: Drug uptake in Sprague-Dawley rat Striatum at 29.1 MBq after 70 to 100 mins post injection by PET imaging. The note with it: in vivo. Format: ADME, tissue-based.
For a further data set, the system named is Plasma. Kind of data set: Metabolic stability human plasma at 60 MBq after 60 mins by UPLC analysis. Format: ADME, cell-free. The note with it: 1 h.
For data set [32], the system named is Hippocampus. Nature of the data set: Drug uptake in Sprague-Dawley rat hippocampus at 0.01 nM after 45 mins by autoradiography. The format is ADME, tissue-based. The note with it: 10 pM.
Data set [33] can be described thus: Distribution coefficient, log D of the compound in octanol and PBS buffer at pH 7.4 by shake-flask method. The format is physicochemical.
The target in data set [34] is T1, Histamine H3 receptor. Kind of data set: Binding affinity to rat cerebral cortex histamine H3 receptor. The format is tissue-based.
The nature of data set [35]: Metabolic stability human liver microsomes assessed as compound oxidation after 90 mins by UPLC analysis. Format: ADME, Microsome. The settings on record: read-out: Drug metabolism.
Data set [36] has as its system Liver microsomes. Kind of data set: Metabolic stability rat liver microsome after 90 mins by UPLC analysis. The format is ADME. The settings on record: 1.5 h.

As usually defined, the Papp B→A is the apparent permeability from the basolateral to the apical side of a cell layer. The term Kd denotes the concentration at which binding is half-saturated. As a reminder, the Papp A→B is the apparent permeability from the apical to the basolateral side of a cell layer. What is called efflux ratio is the permeability from basolateral to apical divided by that in the opposite direction, in the common usage. For orientation: logD means lipophilicity at a set pH, counting ionised and neutral species. As usually defined, the Ki is the dissociation constant of the complex between target and ligand, obtained from inhibition or displacement. A lower Ki goes with higher affinity.

On to `[18F]C1CCN(Cc2ccc(OCCCN3CCCCC3)cc2)CC1`, for which the Drug uptake entry is “Active” in the data set on Cerebral cortex [1]; “Not Active” with Striatum [3]; 90% in [5]; “Active” in data set [7]; “Active” in [8]; “Active” with Rattus norvegicus [9]. For the same compound, the Drug uptake result in data set [10] was “Active”; in the data set with Intestine it was “Active”; in the data set on Cerebral cortex [12] it was “Not Active”; in the data set on Kidney, “Active”; in [13] it was “Active”; in the data set with Rattus norvegicus [14], “Active”. The Drug uptake result with Cerebellum is recorded as “Not Active”; in the data set on Adrenal gland, “Active”; in the data set with Thalamus [16] it was “Active”; in [17], “Active”; with Thalamus [19] it was “Not Active”; in the data set on Hippocampus [20], “Not Active”. The Drug uptake result is on record as “Active” in the data set with Striatum [21]; “Active” in the data set with Liver; “Not Active” in the data set on Cerebral cortex [22]; “Active” in data set [26]; “Active” in data set [27]; “Not Active” in the data set on Striatum [31]. The Drug uptake entry in the data set with Hippocampus [32] is given as “Active”. Further, the Papp B→A with MDR1 [2] was 0.12 ×10⁻⁶ cm/s. In addition, the results for the Kd on Histamine H3 receptor [4] and on Histamine H3 receptor [28] were 0.34 nM and above 3000 nM, respectively. The permeability result in data set [6] and in data set [11] was “permeable” each time. The remaining at 1.5 h, 60 MBq in [15] worked out at 98%. The Stability result with Liver microsomes [18], with Liver microsomes [23], in the data set on Rattus norvegicus [24] and with Plasma was “Stable” throughout. The metabolised at 2 h, 60 MBq in data set [25] was 3%. Moreover, in the data set with MDR1 [29], the apical-to-basolateral permeability (Papp A→B) stood at 0.16 ×10⁻⁶ cm/s. Besides, in the data set on MDR1 [30], the efflux ratio came out at 0.8. Also, the log distribution coefficient (logD) in data set [33] was determined as 0.35.

Turning to `CC[C@]1(O)C[C@@H]2CN(CCc3c([nH]c4ccccc34)[C@@](C(=O)OC)(c3cc4c(cc3OC)N(C)[C@H]3[C@@](O)(C(=O)OC)[C@H](OC(C)=O)[C@]5(CC)C=CCN6CC[C@]43[C@@H]65)C2)C1` [VINBLASTINE], the Papp B→A in the data set with MDR1 [2] is 3.24 ×10⁻⁶ cm/s. Moreover, the Papp A→B in the data set with MDR1 [29] came to 0.22 ×10⁻⁶ cm/s. The efflux ratio with MDR1 [30] was determined as 15.

`O=C(O)c1cn(C2CC2)c2cc(N3CCNCC3)c(F)cc2c1=O` [CIPROFLOXACIN]: the inhibitory constant (Ki) on Histamine H3 receptor [34] came out at 0.654 nM.

For the compound `C[C@]12CC[C@H]3[C@@H](CCC4=CC(=O)CC[C@@]43C)[C@@H]1CC[C@@H]2O` [TESTOSTERONE], in [35], the metabolised at 1.5 h came to 60%. For the same compound, the Stability entry in the data set on Liver microsomes [36] was “Unstable”.

The values are drawn from ChEMBL document CHEMBL2203285, “Radiofluorinated histamine H₃ receptor antagonist as a potential probe for in vivo PET imaging: radiosynthesis and pharmacological evaluation” (Bioorg Med Chem, 2012).
